Consider 11 compounds from ChEMBL document CHEMBL1201862, “PubChem BioAssay data set” (2004).

Structures can show the parent of a compound that is named as a salt.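 Each compound was tested at five concentrations against cells in 96-well plates for 48 hours. GI50 marks 50% less growth.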 Activity calls are given as the source filed them. Rule as the data show it: active = GI50 up to about 1.1 µM and inactive = higher. Some results are limits rather than exact numbers.

Test systems include RXF 393; Hs-578T; SF-295; MOLT-4; SW-620; SN12C; NCI-H226; SK-MEL-5; CAKI-1; COLO 205; EKVX; HOP-92; HL-60; UACC-62; OVCAR-8; 786-0; LOX IMVI; SK-MEL-28; ACHN; SR.
Common to all, as to test: NCI-60 cell line screen, 48 h

Consider `COC(=O)c1c(C#N)c(N)nc2c1CCC2`, for which the GI50 in the experiment with RXF 393 was > 100 µM (inactive); with Hs-578T, 70 µM (inactive); in the experiment on SF-295, > 100 µM (inactive); in the experiment with MOLT-4 it was > 100 µM (inactive); in the experiment on SW-620 it was > 100 µM (inactive); in the experiment on SN12C, > 100 µM (inactive). Further, the GI50 with NCI-H226, in the experiment with SK-MEL-5, in the experiment with CAKI-1, with COLO 205, in the experiment on EKVX and in the experiment with HOP-92 was > 100 µM (inactive) in each case. The GI50 in the experiment on HL-60, in the experiment with UACC-62, in the experiment with OVCAR-8, in the experiment on 786-0, with LOX IMVI and with SK-MEL-28 was > 100 µM (inactive) each time. Also, the GI50 with ACHN was > 100 µM (inactive).
Consider `CC1=NC(=Cc2ccc(O)cc2)C(=O)N1n1c(-c2ccccc2)nc2ccccc2c1=O`, for which the GI50 in the experiment with Hs-578T, in the experiment with SR, with SF-295, with MOLT-4, with SW-620 and in the experiment with SN12C was > 100 µM (inactive) in each case. Besides, the GI50 in the experiment on NCI-H226, with SK-MEL-5, in the experiment on CAKI-1, in the experiment with COLO 205, with EKVX and in the experiment on HL-60 was > 100 µM (inactive) throughout. Also, the GI50 in the experiment with UACC-62, in the experiment with OVCAR-8, with 786-0, in the experiment on LOX IMVI, with SK-MEL-28 and with ACHN was > 100 µM (inactive) in each case.
On to `NCCS` [CYSTEAMINE HYDROCHLORIDE], for which the GI50 in the experiment with Hs-578T, in the experiment with SR, with SF-295, with MOLT-4, with SW-620 and with SN12C was > 100 µM (inactive) each time. Further, the GI50 in the experiment with NCI-H226, in the experiment with SK-MEL-5, in the experiment on CAKI-1, in the experiment on COLO 205, in the experiment on EKVX and in the experiment on HL-60 was > 100 µM (inactive) in each case. The GI50 in the experiment with OVCAR-8, with 786-0, in the experiment on LOX IMVI, in the experiment with SK-MEL-28 and in the experiment on ACHN was > 100 µM (inactive) each time.
`CCOC(=O)C1CCCCN1C(=O)Cc1c[nH]c2ccccc12` (stereo not given): the GI50 in the experiment on RXF 393 is 76.9 µM (inactive); in the experiment with Hs-578T it was 24.8 µM (inactive); in the experiment with SF-295, 66.2 µM (inactive); with MOLT-4, 27.4 µM (inactive); in the experiment with SW-620 it was 94.8 µM (inactive); in the experiment on SN12C, > 100 µM (inactive). Also, the GI50 with NCI-H226 is > 100 µM (inactive); with CAKI-1, 69.7 µM (inactive); in the experiment with COLO 205, 66.2 µM (inactive); in the experiment with EKVX, 59.2 µM (inactive); in the experiment on HOP-92, 16 µM (inactive); in the experiment with HL-60 it was 31.3 µM (inactive). Also, the GI50 is 45.4 µM (inactive) with UACC-62; 42.4 µM (inactive) in the experiment on OVCAR-8; > 100 µM (inactive) with 786-0; 59.4 µM (inactive) with LOX IMVI; > 100 µM (inactive) with SK-MEL-28; 71.4 µM (inactive) in the experiment on ACHN.
Consider `CC(C)[Si](OC1=CCC[C@H]2NC(=O)[C@@H](Cc3ccc([N+](=O)[O-])cc3)[C@@]12C)(C(C)C)C(C)C`, for which the GI50 was 2.15 µM (inactive) with RXF 393; 7.31 µM (inactive) with Hs-578T; 2.79 µM (inactive) in the experiment on SR; 4.59 µM (inactive) with SF-295; 3.72 µM (inactive) in the experiment on MOLT-4; 2.02 µM (inactive) with SN12C. Also, the GI50 with SK-MEL-5 is 2.3 µM (inactive); with CAKI-1, 13.2 µM (inactive); with COLO 205, 3.98 µM (inactive); with EKVX, 6.37 µM (inactive); in the experiment with HL-60, 3.44 µM (inactive); in the experiment on UACC-62 it was 14.2 µM (inactive). Further, the GI50 is 11.6 µM (inactive) with OVCAR-8, 5.11 µM (inactive) in the experiment on 786-0, 4.9 µM (inactive) in the experiment with LOX IMVI and 1.49 µM (inactive) with ACHN.
As to `CCN(CC)CC(O)C1CCC(c2ccccc2)CC1` (stereo not given), the GI50 was 17.4 µM (inactive) with RXF 393; 30.5 µM (inactive) in the experiment with Hs-578T; 17.1 µM (inactive) with SF-295; 43.8 µM (inactive) in the experiment with MOLT-4; 24.8 µM (inactive) in the experiment on SW-620; 39.7 µM (inactive) in the experiment with SN12C. Besides, the GI50 is 15.8 µM (inactive) with NCI-H226; 13.7 µM (inactive) with SK-MEL-5; 19 µM (inactive) in the experiment with CAKI-1; 12.8 µM (inactive) in the experiment on COLO 205; 0.437 µM (active) in the experiment with EKVX; 18.6 µM (inactive) in the experiment with HOP-92. Further, the GI50 in the experiment with HL-60 is 28.9 µM (inactive); with UACC-62, 15.6 µM (inactive); in the experiment with OVCAR-8, 16.3 µM (inactive); in the experiment on 786-0, 15.6 µM (inactive); in the experiment on LOX IMVI, 17.4 µM (inactive); with SK-MEL-28, 25.6 µM (inactive). Further, the GI50 in the experiment on ACHN was 18 µM (inactive).
Take `COc1ccc(C(OCC2OC(n3cnc4c(=O)n(Cc5ccccc5[N+](=O)[O-])nnc43)C(O)C2O)(c2ccccc2)c2ccc(OC)cc2)cc1` (stereo not given): the GI50 in the experiment on RXF 393 is 11.5 µM (inactive); in the experiment with Hs-578T it was 20.8 µM (inactive); in the experiment with SF-295, 5.97 µM (inactive); in the experiment on MOLT-4, 2.31 µM (inactive); with SW-620 it was 17.6 µM (inactive); in the experiment on SN12C it was 6.9 µM (inactive). Moreover, the GI50 in the experiment on NCI-H226 is 5.92 µM (inactive); in the experiment with SK-MEL-5, 9.31 µM (inactive); in the experiment on CAKI-1 it was 10.7 µM (inactive); in the experiment on COLO 205, 6.84 µM (inactive); in the experiment on EKVX, 29.3 µM (inactive); with HOP-92, 2.38 µM (inactive). Besides, the GI50 in the experiment on HL-60 is 2.18 µM (inactive); in the experiment with UACC-62 it was 12.5 µM (inactive); in the experiment with OVCAR-8, 8.11 µM (inactive); in the experiment with 786-0, 10.8 µM (inactive); in the experiment with LOX IMVI it was 6.85 µM (inactive); with SK-MEL-28, 16.7 µM (inactive). In the experiment with ACHN, the GI50 was 14 µM (inactive).
For the compound `C1COCCOP2(N3CC3)=NP(N3CC3)(=NP(N3CC3)(N3CC3)=N2)OCCOCCO1` (stereo not given), the GI50 is > 100 µM (inactive) with RXF 393; > 100 µM (inactive) in the experiment on Hs-578T; 50.4 µM (inactive) in the experiment on SR; > 100 µM (inactive) in the experiment on SF-295; > 100 µM (inactive) with MOLT-4; > 100 µM (inactive) in the experiment with SW-620. In addition, the GI50 in the experiment on SN12C, with NCI-H226, in the experiment with SK-MEL-5, in the experiment with CAKI-1, with COLO 205 and in the experiment on EKVX was > 100 µM (inactive) throughout. Also, the GI50 in the experiment on HL-60 is > 100 µM (inactive); in the experiment on UACC-62, > 100 µM (inactive); in the experiment on OVCAR-8, > 100 µM (inactive); in the experiment with 786-0 it was > 100 µM (inactive); with LOX IMVI, 25.4 µM (inactive); with ACHN, > 100 µM (inactive).
For the compound `Nc1nc(Cl)c(N)c(NCC2(CO)CC(Cc3ccccc3)C2)n1` (stereo not given), the GI50 in the experiment on RXF 393 is > 42.6 µM (inactive); with Hs-578T, > 39.8 µM (inactive); with SF-295, > 100 µM (inactive); in the experiment with MOLT-4 it was 16.3 µM (inactive); in the experiment on SW-620, > 72.8 µM (inactive); in the experiment on SN12C it was > 100 µM (inactive). For the same compound, the GI50 is > 31.8 µM (inactive) in the experiment with NCI-H226; 0.0766 µM (active) with SK-MEL-5; > 100 µM (inactive) in the experiment on CAKI-1; 34.9 µM (inactive) with COLO 205; 3.2 µM (inactive) with EKVX; > 77.3 µM (inactive) in the experiment on HOP-92. Moreover, the GI50 with HL-60 was 4.8 µM (inactive); with UACC-62, > 76.9 µM (inactive); in the experiment on OVCAR-8 it was 56.9 µM (inactive); in the experiment on 786-0, > 91.4 µM (inactive); in the experiment with LOX IMVI it was 2.42 µM (inactive); with SK-MEL-28 it was > 100 µM (inactive). Moreover, the GI50 in the experiment on ACHN is 97.9 µM (inactive).
Consider `CC(=O)O[C@H]1CC[C@@H](OC(C)=O)[C@H]2[C@H](O)[C@H](O)[C@@H]1n1c(=O)n(-c3ccccc3)c(=O)n12`, for which the GI50 with RXF 393, in the experiment with Hs-578T, in the experiment with SF-295, in the experiment with MOLT-4, with SW-620 and in the experiment on SN12C was > 100 µM (inactive) each time. Moreover, the GI50 in the experiment with NCI-H226, in the experiment on SK-MEL-5, in the experiment on CAKI-1, in the experiment on COLO 205, in the experiment with EKVX and with HOP-92 was > 100 µM (inactive) throughout. Moreover, the GI50 in the experiment with HL-60, in the experiment with UACC-62, in the experiment with OVCAR-8, in the experiment with 786-0, in the experiment with LOX IMVI and in the experiment on SK-MEL-28 was > 100 µM (inactive) in each case. Besides, the GI50 with ACHN is > 100 µM (inactive).
With `O=C(/C=C/c1ccsc1)c1ccc(Cl)cc1`, the GI50 with Hs-578T was 57.8 µM (inactive); in the experiment with SR, 18.7 µM (inactive); in the experiment on SF-295, > 100 µM (inactive); with MOLT-4 it was 19.2 µM (inactive); with SW-620 it was 33.6 µM (inactive); with SN12C, 43.4 µM (inactive). For the same compound, the GI50 in the experiment on NCI-H226 was 52 µM (inactive); in the experiment with SK-MEL-5 it was > 100 µM (inactive); with CAKI-1 it was > 100 µM (inactive); with COLO 205, > 100 µM (inactive); in the experiment with EKVX, 97.7 µM (inactive); with HL-60, 19.1 µM (inactive). For the same compound, the GI50 was 41.6 µM (inactive) in the experiment on UACC-62; 64.7 µM (inactive) with OVCAR-8; 89.5 µM (inactive) in the experiment with 786-0; 25.5 µM (inactive) with LOX IMVI; > 100 µM (inactive) in the experiment on SK-MEL-28; > 100 µM (inactive) with ACHN.
